Data on 4 molecules can be found in PubChem BioAssay AID1845219 (Molecular Pharmacology Branch, DTP, NCI, 2023).

Several values for one entry are separate records, joined by “and”; a condition that tells them apart may be missing. Identical values can stand only once. Activity calls are given as the source filed them. The calls were made as follows: active = viability on the fitted dose curve at most 10% of control; inactive = the rest.

The subject of this experiment is SYO-1 tumor spheroids, viability % test/control. The experiment is described as follows: Anticancer human tumor SYO-1 cell line growth inhibition.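 As to all read-outs here: spheroids exposed to agents for 7 days before viability read.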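 As to viability, T/C: 100% = DMSO vehicle control.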 The following applies: spheroids with HUVEC and MSC; for viability, T/C: stronger effect = lower value. The essentials: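 Single agents and combinations were tested on spheroids built from tumor cells plus HUVEC and hMSC, at half-log dilutions starting at or near clinical Cmax, else 10 microM; final DMSO 0.25% (v/v).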

[1] abbreviates: curve of first compound, second compound 0.003 µM.
[2] abbreviates: second compound 0.003 µM, first compound 0.00949 µM.
[3] abbreviates: second compound 0.003 µM, first compound 0.03 µM.
Where [4] appears, read: second compound 0.003 µM, first compound 0.0949 µM.
Setting [5] is: second compound 0.003 µM, first compound 0.3 µM.
Where [6] appears, read: second compound 0.003 µM, first compound 0.949 µM.
[7] abbreviates: second compound 0.003 µM, first compound 3 µM.

On to `Cc1sc2c(c1C)C(c1ccc(Cl)cc1)=NC(CC(=O)Nc1ccc(O)cc1)c1nnc(C)n1-2` (stereo not drawn) + COc1cc2c(cc1O)CCNC21CSC2c3c(OC(C)=O)c(C)c4c(c3C(COC1=O)N1C(O)C3Cc5cc(C)c(OC)c(O)c5C(C21)N3C)OCO4, for which the IC50 by setting is: (curve of first compound, second compound 30 pM) 52.9 nM; (curve of first compound, second compound 94.9 pM) 43.2 nM; (curve of first compound, second compound 0.0003 µM) under 9.49 nM; (curve of first compound, second compound 0.000949 µM) under 9.49 nM; under setting [1], under 9.49 nM. The viability, T/C was 89% (second compound 30 pM, first compound 0.00949 µM); 86.8% (second compound 30 pM, first compound 0.03 µM); 12.1% (second compound 30 pM, first compound 0.0949 µM); 0.72% (second compound 30 pM, first compound 0.3 µM); 0.4% (second compound 30 pM, first compound 0.949 µM); 0.28% (second compound 30 pM, first compound 3 µM). In addition, the viability, T/C is 86.1% (second compound 94.9 pM, first compound 0.00949 µM); 69% (second compound 94.9 pM, first compound 0.03 µM); 8.96% (second compound 94.9 pM, first compound 0.0949 µM); 0.68% (second compound 94.9 pM, first compound 0.3 µM); 0.34% (second compound 94.9 pM, first compound 0.949 µM); 0.28% (second compound 94.9 pM, first compound 3 µM). For the same molecule, the viability, T/C is 6.25% (second compound 0.0003 µM, first compound 0.00949 µM); 2.72% (second compound 0.0003 µM, first compound 0.03 µM); 0.68% (second compound 0.0003 µM, first compound 0.0949 µM); 0.58% (second compound 0.0003 µM, first compound 0.3 µM); 0.32% (second compound 0.0003 µM, first compound 0.949 µM); 6.38% (second compound 0.0003 µM, first compound 3 µM). Moreover, the viability, T/C (second compound 0.000949 µM, first compound 0.03 µM) was 0.65%; the viability, T/C (second compound 0.000949 µM, first compound 0.0949 µM) was 0.51%; the viability, T/C (second compound 0.000949 µM, first compound 0.3 µM) was 0.24%; the viability, T/C (second compound 0.000949 µM, first compound 0.949 µM) was 0.06%; the viability, T/C (second compound 0.000949 µM, first compound 3 µM) is 0.12%; the viability, T/C under setting [2] was 0.08%. Further, the viability, T/C is, setting by setting: under setting [3], 0.1%; under setting [4], 0.09%; under setting [5], 0.1%; under setting [6], 0.09%; under setting [7], 0.21%. Also, for the setting “second compound 0.000949 µM, first compound 0.00949 µM”, the outcome was active.

On to `CC(C)n1c(=O)n(C)c2cnc3cc(F)c(-c4ccc(OCCCN5CCCCC5)nc4)cc3c21`, for which the viability, T/C is 105% and 101% and 96.7% (compound 0.0316 µM); 103% and 101% and 98.9% (compound 0.1 µM); 84.4% and 102% and 93.8% (compound 0.316 µM); 103% and 102% and 104% (compound 1 µM); 107% and 103% and 104% (compound 3.16 µM); 64.1% and 48% and 48.3% (compound 10 µM). Further, the IC50 (curve of compound) is > 10000 nM and 9600 nM and 9620 nM.

Regarding `CC[C@@]1(O)C(=O)OCc2c1cc1n(c2=O)Cc2cc3c(CN(C)C)c(O)ccc3nc2-1`, the viability, T/C is, setting by setting: (compound 0.003 µM) 92.2% [middle of 10 runs]; (compound 0.03 µM) 1.67% [middle of 10 runs]; (compound 0.0949 µM) 1.54% [middle of 10 runs]; (compound 0.3 µM) 1.88% [middle of 10 runs]. In addition, the IC50 reads like this: (compound alone, run of 12/02/2019) 5.58 nM [middle of 5 runs]; (compound alone, run of 12/12/2019) 6.49 nM [middle of 5 runs].

On to `Cc1sc2c(c1C)C(c1ccc(Cl)cc1)=NC(CC(=O)Nc1ccc(O)cc1)c1nnc(C)n1-2` (stereo not drawn) + CC[C@@]1(O)C(=O)OCc2c1cc1n(c2=O)Cc2cc3c(CN(C)C)c(O)ccc3nc2-1, for which the IC50 reads like this: under setting [1], 43.4 nM; (curve of first compound, second compound 0.00949 µM) under 9.49 nM; (curve of first compound, second compound 0.03 µM) under 9.49 nM; (curve of first compound, second compound 0.0949 µM) under 9.49 nM; (curve of first compound, second compound 0.3 µM) under 9.49 nM. The viability, T/C by setting is: under setting [2], 84.9%; under setting [3], 70.3%; under setting [4], 7.08%; under setting [5], 0.99%; under setting [6], 0.77%; under setting [7], 0.63%. For the same molecule, the viability, T/C (second compound 0.00949 µM, first compound 0.00949 µM) was 6.31%; the viability, T/C (second compound 0.00949 µM, first compound 0.03 µM) was 3.24%; the viability, T/C (second compound 0.00949 µM, first compound 0.0949 µM) is 1.18%; the viability, T/C (second compound 0.00949 µM, first compound 0.3 µM) was 1.31%; the viability, T/C (second compound 0.00949 µM, first compound 0.949 µM) is 0.7%; the viability, T/C (second compound 0.00949 µM, first compound 3 µM) was 0.6%. Further, the viability, T/C (second compound 0.03 µM, first compound 0.00949 µM) is 1.74%; the viability, T/C (second compound 0.03 µM, first compound 0.03 µM) is 1.47%; the viability, T/C (second compound 0.03 µM, first compound 0.0949 µM) was 1.35%; the viability, T/C (second compound 0.03 µM, first compound 0.3 µM) is 7.03%; the viability, T/C (second compound 0.03 µM, first compound 0.949 µM) was 0.62%; the viability, T/C (second compound 0.03 µM, first compound 3 µM) was 0.49%. The viability, T/C runs as follows: (second compound 0.0949 µM, first compound 0.00949 µM) 1.62%; (second compound 0.0949 µM, first compound 0.03 µM) 1.4%; (second compound 0.0949 µM, first compound 0.0949 µM) 0.87%; (second compound 0.0949 µM, first compound 0.3 µM) 1.04%; (second compound 0.0949 µM, first compound 0.949 µM) 0.66%; (second compound 0.0949 µM, first compound 3 µM) 0.74%. For the same molecule, the viability, T/C runs as follows: (second compound 0.3 µM, first compound 0.00949 µM) 1.64%; (second compound 0.3 µM, first compound 0.03 µM) 1.48%; (second compound 0.3 µM, first compound 0.0949 µM) 1.05%; (second compound 0.3 µM, first compound 0.3 µM) 0.75%; (second compound 0.3 µM, first compound 0.949 µM) 0.47%; (second compound 0.3 µM, first compound 3 µM) 0.55%.

A word on the IC50: it is the concentration that gives 50% inhibition. One may read the viability, T/C as the ratio of treated to control.
